For this assay, the target named is T1, PfThrRS (Plasmodium falciparum, UniProt Q8IIA4).
T1 construct: made in house; host or cells: E. coli BL21(DE3)
T1 sequence (Q8IIA4 21-1013): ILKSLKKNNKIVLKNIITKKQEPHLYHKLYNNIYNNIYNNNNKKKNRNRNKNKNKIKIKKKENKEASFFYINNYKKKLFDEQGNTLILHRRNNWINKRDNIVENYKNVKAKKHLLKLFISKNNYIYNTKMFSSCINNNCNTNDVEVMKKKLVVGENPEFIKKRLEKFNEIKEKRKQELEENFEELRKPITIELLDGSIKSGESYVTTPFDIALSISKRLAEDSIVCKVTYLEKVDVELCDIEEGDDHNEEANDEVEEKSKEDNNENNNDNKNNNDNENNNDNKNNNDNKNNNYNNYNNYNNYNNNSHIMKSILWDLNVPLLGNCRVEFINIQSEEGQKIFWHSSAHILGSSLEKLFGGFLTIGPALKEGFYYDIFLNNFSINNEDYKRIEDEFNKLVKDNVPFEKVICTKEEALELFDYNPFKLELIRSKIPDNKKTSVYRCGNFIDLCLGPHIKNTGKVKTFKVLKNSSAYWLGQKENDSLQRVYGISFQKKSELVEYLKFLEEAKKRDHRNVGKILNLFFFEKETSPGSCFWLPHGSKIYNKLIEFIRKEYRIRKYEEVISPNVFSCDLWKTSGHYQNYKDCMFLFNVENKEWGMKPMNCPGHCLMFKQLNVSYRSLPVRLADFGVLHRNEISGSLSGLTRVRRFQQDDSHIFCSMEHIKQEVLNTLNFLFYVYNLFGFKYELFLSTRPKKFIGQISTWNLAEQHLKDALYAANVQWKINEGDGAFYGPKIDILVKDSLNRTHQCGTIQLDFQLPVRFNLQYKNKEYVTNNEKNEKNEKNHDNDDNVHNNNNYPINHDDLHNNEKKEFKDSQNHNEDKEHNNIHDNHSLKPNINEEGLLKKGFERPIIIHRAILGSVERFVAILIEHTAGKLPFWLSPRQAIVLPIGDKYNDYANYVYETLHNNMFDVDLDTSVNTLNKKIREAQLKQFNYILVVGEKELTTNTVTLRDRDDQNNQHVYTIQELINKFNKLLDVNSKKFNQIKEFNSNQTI
Put plainly: In vitro PfThrRS inhibition assay (aminoacylation activity, ATP consumption by Kinase-Glo luminescence). It is filed as biochemical. The note with it: for LE (ligand efficiency): PfThrRS inhibitors, Fig 4 and text. On the procedure:
The bioassay protocol was adapted from the literature. The aminoacylation activity of PfThrRS in the presence of compounds was determined by measuring ATP consumption in the enzymatic reaction by using recombinant PfThrRS and P. falciparum cell extract as a source of t-RNA. ATP consumption was determined by Kinase-Glo® Reagent (Promega Inc.). The luminescence was read on a Tecan Infinite M1000 microplate reader. The inhibitory rate was measured in three independent assays. Borrelidin was obtained from commercial sources and used as a reference compound.

Setting [1] is: Table SI1, adenosine binding subsite substituent.
Setting [2] is: Table SI1, adenosine binding subsite substituent, fraction of PfThrRS inhibited at 100 µM, read-out: ThrRS inhibition @100 µM, %.
[3] abbreviates: Table SI2, arginine binding group, fraction of PfThrRS inhibited at 100 µM, read-out: ThrRS inhibition @100 µM, %.
The mark [4] stands for this setting: Table SI3, zinc ion binding group, fraction of PfThrRS inhibited at 100 µM, read-out: ThrRS inhibition @100 µM, %.

Like-named read-outs stand apart in the source and are kept apart here.

The values below come from publication PMC10984466, “Structure-based identification of salicylic acid derivatives as malarial threonyl tRNA-synthetase inhibitors” (PLOS ONE, 2024).

`O=C(O)c1cc(S(=O)(=O)Nc2ccc(Cc3ccccc3)cc2)ccc1O` [7q, 5-(N-(4-benzylphenyl)sulfamoyl)-2-hydroxybenzoic acid] had an IC50 under setting [1] of 55 ± 3 µM. In addition, the inhibition at 100 µM under setting [2] worked out at 67 ± 11%. For the compound `O=C(Nc1cccc(C(F)(F)F)c1)c1cccc(NS(=O)(=O)c2ccc(O)c(C(=O)O)c2)c1` [7k], under setting [1], the IC50 was found to be 31 ± 2 µM. Moreover, the inhibition at 100 µM under setting [2] was determined as 100%. For `O=C(O)CC(O)(Cc1ccccc1)c1ccc(O)c(C(=O)O)c1` (stereo not drawn) [7h, 5-(1-Carboxy-2-hydroxy-3-phenylpropan-2-yl)-2-hydroxybenzoic acid], the inhibition at 100 µM under setting [3] came to 10 ± 8%. As for `O=C(O)c1cc(S(=O)(=O)Nc2ccccc2)ccc1O` [7a, 2-Hydroxy-5-(N-phenylsulfamoyl)benzoic acid], the “LE (ligand efficiency)” value (listed as 7) was 0.34. Under setting [1], this compound came in with an IC50 of 13.1 ± 1.4 µM. Also, the inhibition at 100 µM under setting [2] came to 100%. For the compound `O=C(O)c1cc(S(=O)(=O)Nc2cc(Cl)ccc2Oc2ccccc2)ccc1O` [7l], under setting [1], the IC50 was 32 ± 2 µM. Moreover, the inhibition at 100 µM under setting [2] worked out at 100%. Take `O=C(O)c1cc(S(=O)(=O)c2ccccc2)ccc1O` [7j, 2-Hydroxy-5-(phenylsulfonyl)benzoic acid]: the inhibition at 100 µM under setting [3] stood at 11 ± 10%. For the compound `Cc1csc2ncc(C(=O)N[C@H]3Cc4ccc(C(=O)O)cc4C3)n12` [compound 14], the “LE (ligand efficiency)” value is given as 0.25. For the same compound, the concentration for half-maximal inhibition (IC50) (verified HTVS hits, Fig 4) amounted to 49 ± 5 µM. Taken in the same sequence, the figures for `O=C(O)c1cc(C2CCN(C(=O)C[C@H]3CCCCO3)CC2)no1` [compound 13] were 0.26 and 65 ± 5 µM. `O=C(O)c1cc(S(=O)(=O)Nc2ccc(Cl)cc2)ccc1O` [7w]: the inhibition at 100 µM under setting [2] was found to be 31 ± 10%. Turning to `COc1ccc(S(=O)(=O)Nc2ccccc2)cc1C(=O)O` [7e], under setting [4], the inhibition at 100 µM was found to be 11 ± 7%. Consider `O=C(O)c1cc(S(=O)(=O)Nc2cccc(-c3ccccc3)c2)ccc1O` [7x, 5-(N-([1,1’-biphenyl]-3-yl)sulfamoyl)-2-hydroxybenzoic acid], for which, under setting [2], the inhibition at 100 µM stood at 7 ± 1%.

Turning to `O=C(O)c1cc(S(=O)(=O)Nc2ccc(Oc3ccccc3)cc2)ccc1O` [7t, 2-Hydroxy-5-(N-(4-phenoxyphenyl)sulfamoyl)benzoic acid], for the setting “100 μM compound, Figs 6, 8, 12, read-out: PfThrRS inhibition @100 μM, %”, the inhibition at 100 µM stood at 58 ± 9%. For `O=C(c1ccn(-c2ccc(F)cc2)n1)N1CCC(O)(C(=O)O)C1` (stereo not drawn) [compound 10], the “LE (ligand efficiency)” value turned out to be 0.29. Besides, the half-maximal inhibitory concentration (IC50) (verified HTVS hits, Fig 4) was 19 ± 2 µM. `O=C(O)c1cc(S(=O)(=O)Nc2ccc(I)cc2)ccc1O` [7n] showed an IC50 under setting [1] of 46 ± 2 µM. Also, the inhibition at 100 µM under setting [2] is 88%. As to `Cc1nc2cc(NC(=O)C3C4C=CC(C4)C3C(=O)O)ccc2o1` (stereo not drawn) [compound 11], the “LE (ligand efficiency)” value worked out at 0.27. Where the note is “verified HTVS hits, Fig 4”, this compound displayed an IC50 of 39 ± 4 µM. For `CCCCc1ccc(NS(=O)(=O)c2ccc(O)c(C(=O)O)c2)cc1` [7m], the IC50 under setting [1] worked out at 31 ± 2 µM. Besides, the inhibition at 100 µM under setting [2] came out at 93%. Taken in the same sequence, the figures for `COc1cccc(-c2cccc(NS(=O)(=O)c3ccc(O)c(C(=O)O)c3)c2)c1` [7p, 2-Hydroxy-5-(N-(3’-methoxy-[1,1’-biphenyl]-3-yl)sulfamoyl)benzoic acid] were 46 ± 3 µM and 80 ± 9%.

`O=C(O)c1cc(S(=O)(=O)Nc2ccc3oc(=O)sc3c2)ccc1O` [7u] registered an IC50 under setting [1] of 89 ± 4 µM. Moreover, the inhibition at 100 µM under setting [2] was 58%.

The compound `Cc1ccc(NS(=O)(=O)c2ccc(O)c(C(=O)O)c2)cc1` [7s] returned an IC50 under setting [1] of 67 ± 3 µM. In addition, the inhibition at 100 µM under setting [2] is 63%. As for `O=C(O)c1cc(S(=O)(=O)Nc2ccccc2)ccc1S` [7d, 2-Mercapto-5-(N-phenylsulfamoyl)benzoic acid], the inhibition at 100 µM under setting [4] is 16 ± 11%.

As for `O=C(O)CCc1nc2c(O)nc(SCc3ccccc3F)[nH]c-2nc1=O` [compound 12], the “LE (ligand efficiency)” value stood at 0.27. The compound further yielded an IC50 (verified HTVS hits, Fig 4) of 12.1 ± 1.6 µM.

For `O=C(O)c1cc(S(=O)(=O)Nc2ccc(Oc3ccccc3)cc2)ccc1O` [LVV-455], the inhibition at 100 µM under setting [2] came out at 35 ± 11%. As for `COC(=O)c1cc(S(=O)(=O)Nc2ccccc2)ccc1O` [7b, Methyl 2-hydroxy-5-(N-phenylsulfamoyl)benzoate], under setting [4], the inhibition at 100 µM is 19 ± 8%. For `O=C(O)c1cc(S(=O)(=O)Nc2cccc(Cl)c2)ccc1O` [7r], under setting [1], the half-maximal inhibitory concentration (IC50) stood at 76 ± 4 µM. In addition, the inhibition at 100 µM under setting [2] stood at 64%. Regarding `Cc1c(C(=O)O)nnn1-c1sc2c(c1C(=O)O)CCCC2` [compound 8], the “LE (ligand efficiency)” value was 0.33. For the same compound, the IC50 (verified HTVS hits, Fig 4) was found to be 10.3 ± 1.2 µM. For the compound `O=C(O)c1cccc(S(=O)(=O)Nc2ccccc2)c1` [7f], under setting [4], the inhibition at 100 µM turned out to be 2 ± 4%. `O=C(O)c1cc(S(=O)(=O)Nc2ccc(Br)cc2)ccc1O` [7o]: the half-inhibitory concentration (IC50) under setting [1] turned out to be 32 ± 2 µM. Also, under setting [2], the inhibition at 100 µM came to 84%.

On to `O=C(O)c1cc(C(Nc2ccccc2)C(=O)O)ccc1O` (stereo not drawn) [7i, 5-(Carboxy(phenylamino)methyl)-2-hydroxybenzoic acid], for which the inhibition at 100 µM under setting [3] worked out at 0%. As to `CCCCC[C@H](O)CC[C@@H]1[C@H]2Cc3cccc(OCC(=O)O)c3C[C@H]2C[C@H]1O` [compound 15, Remodulin, reference compound], the “LE (ligand efficiency)” value is on record as 0.25. The midpoint of inhibition (verified HTVS hits, Fig 4), the IC50, lay at 12.5 ± 1.5 µM. Compound `O=C(O)c1cc(S(=O)(=O)Nc2cccc3ccccc23)ccc1O` [7v] gave an IC50 under setting [1] of 84 ± 4 µM. The inhibition at 100 µM under setting [2] was 57%. For `O=C(NO)c1cc(S(=O)(=O)Nc2ccccc2)ccc1O` [7c, N,2-dihydroxy-5-(N-phenylsulfamoyl)benzamide], the inhibition at 100 µM under setting [4] worked out at 16 ± 7%.

Regarding `O=C(O)c1cc(S(=O)(=O)Nc2ccccc2)ccc1F` [7g], the inhibition at 100 µM under setting [4] came to 0%. `O=C(O)CCS(=O)(=O)c1ccc2c(c1)OCCCO2` [compound 9]: the “LE (ligand efficiency)” value is on record as 0.30. Also, 75 ± 5 µM corresponded to half-maximal inhibition (verified HTVS hits, Fig 4) (IC50).
